Measured values: article PMC5361737, “Potent and Selective KDM5 Inhibitor Stops Cellular Demethylation of H3K4me3 at Transcription Start Sites and Proliferation of MM1S Myeloma Cells” (Cell Chemical Biology, 2017)
“Also recorded” adds a separate entry of the source.

Columns and labels:
EP4 (h) = EP4 (h) (Homo sapiens, UniProt P35408); assay: Cerep Express Panel, agonist radioligand; assay type: binding; conditions: read-out: % Inhibition of reference (10 µM)
[1] = test system: other tested JmjC family members; assay: IF assay, HeLa cells overexpressing other JmjC family members; assay type: cell-based, human; conditions: overexpression IF assay, 24 hr
Description: The human cervical carcinoma cell line HeLa was obtained from the American Type Cultures Collection and maintained in Eagle's minimal essential media (Sigma-Aldrich) supplemented with 10% heat-inactivated fetal bovine serum (Life Technologies). Full-length cDNA for KDM5B (JARID1B, Q9UGL1, cDNA), KDM5C (JARID1C, P41229, IMAGE 5492114), KDM4B (JMJD2B, O94953, gift from ICR), KDM4C (JMJD2C, Q9H3R0, 8143862), KDM3A (JMJD1A, Q9Y4C1, 4823253), KDM2A (FBXL11, Q9Y2K7, 5534384), and KDM6B (JMJD3, O15054, cDNA) were amplified by PCR from either an MGC clone or a commercial cDNA source, or received as a gift from collaborators and cloned into pDONR-221 vector using Gateway BP reaction producing Gateway entry clones.
[…]. Mutations were introduced into full-length KDM Gateway entry clones using 15 cycles of the QuikChange II PCR protocol (Agilent Technologies). […]
In brief, cells were transiently transfected with either the FLAG-tagged WT or mutant demethylase described above, using Lipofectamine 2000 (Life Technologies). […] After the DAPI-stained nuclei were automatically identified, a minimum threshold for anti-FLAG intensity was set so that only cells highly expressing the demethylase were analyzed. […]

BZD (central) = assay: Cerep Express Panel, agonist radioligand; assay type: binding
Caco-2 cells = assay: Caco-2 cell permeability assay; assay type: in vitro ADME
Procedure: The higher concentration (60 μM) required for cellular activity could be ascribed to different reasons: first to the partial competition with the co-factor 2-OG, the physiological intracellular concentrations of which could be up to […] levels ([Thirstrup et al., 2011]); second to an estimated moderate-to-low cell permeability of KDOAM25. […] Together these effects could explain the partial loss of potency observed in the IF cell assay.

[2] = Liver microsomes stability; assay type: in vitro ADME; conditions: rat liver microsomes
D1 (h) = D1 (h) (Homo sapiens, UniProt P21728); assay: Cerep Express Panel, antagonist radioligand; assay type: binding; conditions: read-out: % Inhibition of reference (10 µM)
5-HT1A (h) = 5-HT1A (h) (Homo sapiens, UniProt P08908); assay: Cerep Express Panel, agonist radioligand; assay type: binding; conditions: read-out: % Inhibition of reference (10 µM)
dopamine transporter (h) = target: T1, dopamine transporter (h) (Homo sapiens, UniProt Q01959); assay: Cerep Express Panel, antagonist radioligand; assay type: binding; conditions: read-out: % Inhibition of reference (10 µM)
T1 construct: CEREP

KDM3A = KDM3A (Homo sapiens, UniProt Q9Y4C1); assay: 2-Oxoglutarate oxygenase assay panel, AlphaScreen assay
[3] = test system: endogenous KDM5 demethylases; assay: IF assay of endogenous H3K4me3 in untransfected HeLa cells; assay type: cell-based, human; conditions: 48 hr
Procedure: In brief, cells were transiently transfected with either the FLAG-tagged WT or mutant demethylase described above, using Lipofectamine 2000 (Life Technologies). Four hours after transfection the cells were treated with serial dilutions of compound for 24 hr. The cells were subsequently fixed and stained with an anti-FLAG antibody (Sigma F3165) as well as an anti-methylated histone antibody (H3K4me3 Diagenode C15410003, H3K9me2 Abcam ab1220, H3K9me3 Abcam ab8898, H3K27me3 Millipore 07–449, or H3K36me2 Active Motif 61019). The secondary antibodies were labeled with either Alexa Fluor 488 or 568 (Life Technologies). Image acquisition was conducted using the Operetta High Content Imaging System (PerkinElmer) and image analysis was performed with the Columbus software (PerkinElmer). After the DAPI-stained nuclei were automatically identified, a minimum threshold for anti-FLAG intensity was set so that only cells highly expressing the demethylase were analyzed. Assays assessing the endogenous H3K4me3 methyl mark changes were performed accordingly without overexpressing KDM5 after compounds treatment for 48 hr.
Figure S1 related to Figure 2 Inhibition of KDM4/5 mediated H3K4me3
(A) EC50 curves of KDOAM-20, KDOAM-21 and KDOAM-32 in KDM5B and KDM4C (B)
and KDOAM-32 in untransfected HeLa cells.
(1 picture or pasted object on this page, not shown here)

MM1S cells = assay: Cell-cycle analysis; assay type: cell-based, human

KDM3A, sequence (Q9Y4C1 whole entry): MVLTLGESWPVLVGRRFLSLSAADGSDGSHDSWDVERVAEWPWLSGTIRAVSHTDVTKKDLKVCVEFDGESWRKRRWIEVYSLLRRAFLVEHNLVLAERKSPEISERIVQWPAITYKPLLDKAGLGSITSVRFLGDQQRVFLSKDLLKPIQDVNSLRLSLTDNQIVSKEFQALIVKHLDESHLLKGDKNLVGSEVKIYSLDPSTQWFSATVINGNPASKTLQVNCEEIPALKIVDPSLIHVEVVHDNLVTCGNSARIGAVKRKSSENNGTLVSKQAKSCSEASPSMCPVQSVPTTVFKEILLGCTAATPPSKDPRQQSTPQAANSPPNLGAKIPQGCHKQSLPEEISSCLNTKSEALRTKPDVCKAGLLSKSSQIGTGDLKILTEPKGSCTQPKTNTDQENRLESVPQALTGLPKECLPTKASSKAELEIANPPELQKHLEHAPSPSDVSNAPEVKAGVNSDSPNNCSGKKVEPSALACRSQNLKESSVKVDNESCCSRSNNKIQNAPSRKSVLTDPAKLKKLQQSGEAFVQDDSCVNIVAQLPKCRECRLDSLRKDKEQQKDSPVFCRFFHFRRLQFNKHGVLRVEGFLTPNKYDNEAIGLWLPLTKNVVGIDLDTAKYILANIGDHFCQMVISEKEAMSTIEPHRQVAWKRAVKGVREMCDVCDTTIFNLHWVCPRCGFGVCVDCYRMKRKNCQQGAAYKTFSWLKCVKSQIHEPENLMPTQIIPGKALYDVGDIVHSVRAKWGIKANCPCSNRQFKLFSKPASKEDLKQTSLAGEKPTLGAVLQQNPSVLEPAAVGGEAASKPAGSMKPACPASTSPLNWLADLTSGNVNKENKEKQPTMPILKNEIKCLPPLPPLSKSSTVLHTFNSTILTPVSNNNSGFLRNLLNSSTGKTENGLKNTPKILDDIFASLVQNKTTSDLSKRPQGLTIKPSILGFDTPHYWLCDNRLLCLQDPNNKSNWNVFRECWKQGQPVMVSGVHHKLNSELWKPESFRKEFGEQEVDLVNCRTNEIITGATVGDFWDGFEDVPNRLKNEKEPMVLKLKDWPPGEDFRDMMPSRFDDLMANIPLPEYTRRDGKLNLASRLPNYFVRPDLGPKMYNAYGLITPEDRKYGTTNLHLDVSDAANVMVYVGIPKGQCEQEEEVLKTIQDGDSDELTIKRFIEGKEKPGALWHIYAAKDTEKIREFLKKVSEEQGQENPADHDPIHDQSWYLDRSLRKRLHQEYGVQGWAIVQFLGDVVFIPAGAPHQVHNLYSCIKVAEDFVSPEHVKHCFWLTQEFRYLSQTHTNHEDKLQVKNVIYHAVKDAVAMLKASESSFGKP
T1 sequence (Q01959 whole entry): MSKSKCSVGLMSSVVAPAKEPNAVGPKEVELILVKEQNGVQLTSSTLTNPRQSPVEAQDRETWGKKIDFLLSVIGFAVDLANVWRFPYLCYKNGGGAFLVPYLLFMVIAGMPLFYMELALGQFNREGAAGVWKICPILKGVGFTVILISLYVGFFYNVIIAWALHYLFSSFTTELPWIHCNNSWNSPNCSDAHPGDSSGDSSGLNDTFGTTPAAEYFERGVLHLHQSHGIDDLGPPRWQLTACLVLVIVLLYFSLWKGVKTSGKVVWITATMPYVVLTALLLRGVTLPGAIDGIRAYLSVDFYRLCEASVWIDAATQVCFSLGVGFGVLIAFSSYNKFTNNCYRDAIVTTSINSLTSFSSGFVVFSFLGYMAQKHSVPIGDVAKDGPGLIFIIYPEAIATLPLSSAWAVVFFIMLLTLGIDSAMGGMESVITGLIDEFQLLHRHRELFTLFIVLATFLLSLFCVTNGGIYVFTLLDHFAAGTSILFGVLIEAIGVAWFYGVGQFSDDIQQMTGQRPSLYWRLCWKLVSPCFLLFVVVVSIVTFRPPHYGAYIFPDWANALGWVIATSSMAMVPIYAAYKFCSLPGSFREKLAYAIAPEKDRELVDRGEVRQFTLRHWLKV
D1 (h), sequence (P21728 whole entry): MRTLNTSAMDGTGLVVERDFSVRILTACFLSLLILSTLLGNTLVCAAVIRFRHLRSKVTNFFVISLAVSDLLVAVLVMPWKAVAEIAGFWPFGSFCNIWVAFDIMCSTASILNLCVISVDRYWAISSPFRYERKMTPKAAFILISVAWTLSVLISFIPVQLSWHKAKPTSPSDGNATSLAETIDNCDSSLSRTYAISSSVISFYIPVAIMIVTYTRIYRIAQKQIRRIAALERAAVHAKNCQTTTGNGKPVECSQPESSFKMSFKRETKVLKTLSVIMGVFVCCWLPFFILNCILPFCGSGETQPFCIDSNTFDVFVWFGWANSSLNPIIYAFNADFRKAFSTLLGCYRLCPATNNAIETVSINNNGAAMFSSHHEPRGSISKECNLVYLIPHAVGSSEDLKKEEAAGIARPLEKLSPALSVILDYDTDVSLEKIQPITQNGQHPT
5-HT1A (h), sequence (P08908 whole entry): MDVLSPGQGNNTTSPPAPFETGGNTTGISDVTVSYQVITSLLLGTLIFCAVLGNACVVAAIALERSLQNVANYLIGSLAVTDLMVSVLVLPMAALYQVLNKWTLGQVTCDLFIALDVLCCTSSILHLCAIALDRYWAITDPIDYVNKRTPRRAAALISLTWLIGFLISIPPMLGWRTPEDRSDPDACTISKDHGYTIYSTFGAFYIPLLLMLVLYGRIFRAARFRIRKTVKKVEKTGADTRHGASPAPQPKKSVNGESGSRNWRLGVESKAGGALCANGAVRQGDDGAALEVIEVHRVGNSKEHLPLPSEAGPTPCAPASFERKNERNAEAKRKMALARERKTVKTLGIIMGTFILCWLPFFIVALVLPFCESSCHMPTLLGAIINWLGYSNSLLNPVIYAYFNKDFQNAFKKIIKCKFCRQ
EP4 (h), sequence (P35408 whole entry): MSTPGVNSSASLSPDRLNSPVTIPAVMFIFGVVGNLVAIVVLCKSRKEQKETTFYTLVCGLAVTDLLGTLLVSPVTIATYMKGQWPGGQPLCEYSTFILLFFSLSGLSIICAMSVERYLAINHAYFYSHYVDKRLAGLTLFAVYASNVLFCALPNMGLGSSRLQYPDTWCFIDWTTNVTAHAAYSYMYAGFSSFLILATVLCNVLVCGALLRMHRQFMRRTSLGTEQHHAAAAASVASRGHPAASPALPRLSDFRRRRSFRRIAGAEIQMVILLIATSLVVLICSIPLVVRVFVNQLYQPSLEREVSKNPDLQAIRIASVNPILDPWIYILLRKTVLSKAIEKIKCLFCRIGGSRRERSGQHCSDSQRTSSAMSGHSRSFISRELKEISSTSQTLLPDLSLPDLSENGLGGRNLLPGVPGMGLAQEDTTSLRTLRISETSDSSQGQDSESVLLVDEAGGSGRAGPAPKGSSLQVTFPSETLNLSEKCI

In the case of `CCN(CCN(C)C)C(=O)CNCc1cc(C(N)=O)ccn1` [KDOAM-25], the inhibition at 10 µM (EP4 (h)) is reported as -15%, the “cellular activity on other tested JmjC family members” value [1] is reported as “no cellular activity; also recorded: no effect” and the “% Inhibition of reference (10 µM)” value (BZD (central)) is reported as -42%. For the same molecule, the “Caco-2 A-B” value (Caco-2 cells) was under 0.76, the “Caco-2 B-A” value (Caco-2 cells) was under 0.76 and the “Caco-2 permeability, in words” value (Caco-2 cells; passive permeation) was “low permeability region”. The “intrinsic clearance, in words” value [2] was “low intrinsic clearance”, the microsomal CLint ([2]; read-out: RLM Clint) was under 1 µL/min/mg and the inhibition at 10 µM (D1 (h)) was 10%. For the same molecule, the inhibition at 10 µM (5-HT1A (h)) was -7%, the inhibition at 10 µM (dopamine transporter (h)) was 13% and the IC50 (KDM3A) was 31.6 µM. For the same molecule, the “inhibition of endogenous KDM5 demethylases, potency in words” value [3] was “potencies similar to those seen in the overexpression assay” and the cell-cycle effect (MM1S cells) was “G1 cell-cycle arrest”.
